The results in this text go back to US9150545B2, “Carboxamide compounds and their use as calpain inhibitors V” (ABBVIE DEUTSCHLAND GMBH & CO. KG, priority 2012, dated 2015).

In the experiment the target is T1, calpain-I isolated from human erythrocytes (Homo sapiens, UniProt P07384).
T1 construct: calpain-I—isolated from human erythrocytes (Calbiochem #208713); purchased Calbiochem 208713; host or cells: human erythrocytes (native tissue isolate)
T1 sequence (P07384 1-714): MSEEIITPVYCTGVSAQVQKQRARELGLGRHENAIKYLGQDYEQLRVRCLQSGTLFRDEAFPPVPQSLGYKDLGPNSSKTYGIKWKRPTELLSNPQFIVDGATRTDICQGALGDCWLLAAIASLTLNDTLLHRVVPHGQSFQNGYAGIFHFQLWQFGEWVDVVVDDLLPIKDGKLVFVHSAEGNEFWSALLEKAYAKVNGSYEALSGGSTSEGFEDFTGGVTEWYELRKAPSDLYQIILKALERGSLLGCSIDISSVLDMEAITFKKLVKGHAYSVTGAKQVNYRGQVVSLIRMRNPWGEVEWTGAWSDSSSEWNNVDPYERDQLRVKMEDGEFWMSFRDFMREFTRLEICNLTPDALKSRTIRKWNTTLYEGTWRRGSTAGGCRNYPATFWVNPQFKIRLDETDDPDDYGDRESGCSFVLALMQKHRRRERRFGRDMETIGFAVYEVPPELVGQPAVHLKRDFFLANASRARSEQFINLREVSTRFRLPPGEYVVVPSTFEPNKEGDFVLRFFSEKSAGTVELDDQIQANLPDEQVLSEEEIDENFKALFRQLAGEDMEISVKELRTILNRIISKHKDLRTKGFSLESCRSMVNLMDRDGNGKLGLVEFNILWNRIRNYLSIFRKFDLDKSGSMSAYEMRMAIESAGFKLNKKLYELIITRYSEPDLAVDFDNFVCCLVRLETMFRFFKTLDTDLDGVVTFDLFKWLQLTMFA
T1 sequence (P04632 1-268 partner): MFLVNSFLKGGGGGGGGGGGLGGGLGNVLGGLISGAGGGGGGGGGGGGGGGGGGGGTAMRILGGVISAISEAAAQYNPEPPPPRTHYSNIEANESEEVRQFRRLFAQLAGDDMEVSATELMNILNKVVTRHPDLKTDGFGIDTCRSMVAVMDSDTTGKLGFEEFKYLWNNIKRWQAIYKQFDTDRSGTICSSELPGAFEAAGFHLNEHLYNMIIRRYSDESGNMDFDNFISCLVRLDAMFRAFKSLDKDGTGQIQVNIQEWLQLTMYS
The experiment can be described thus: Calpain I kinetic fluorescence enzyme inhibition assay. Type of experiment: biochemical. The following applies: apparent Ki from IC50 by Cheng-Prussoff. The method, then:
Testing for blockade of the corresponding enzymic activities was carried out by means of kinetic fluorescence assays (excitation 390 nm, emission 460 nm).
Apparent Ki values were calculated from the experimentally determined IC50 values by the Cheng-Prussoff relation assuming a reversible competitive enzyme inhibition.
20 nM calpain-I—isolated from human erythrocytes (Calbiochem #208713), 100 μM Suc-Leu-Tyr-AMC (Bachem #I-1355) as substrate in buffer with 62 mM imidazole, 0.3 mM CaCl2, 0.10% CHAPS, 0.05% BSA, 1 mM DTT at pH 7.3 and room temperature.

pKi: −log10 of the molar value. Structures can show the parent of a compound that is named as a salt.

The pKi is −log10 of the Ki, conventionally taken in molar units. For the compound `NC(=O)C(=O)C(Cc1ccccc1)NC(=O)c1cccnc1-n1ccc(CN2Cc3ccccc3C2)n1` (stereo not shown) [Example 19, N-(4-Amino-3,4-dioxo-1-phenylbutan-2-yl)-2-(3-(isoindolin-2-ylmethyl)-1H-pyrazol-1-yl)nicotinamide], the pKi is greater than 6.60.

Take `NC(=O)C(=O)C(Cc1ccccc1)NC(=O)c1cccnc1-n1ccc(CN2CCCC2)n1` (stereo not shown) [Example 10, N-(4-Amino-3,4-dioxo-1-phenylbutan-2-yl)-2-(3-(pyrrolidin-1-ylmethyl)-1H-pyrazol-1-yl)nicotinamide trifluoroacetate]: the pKi was 6.40 to 6.60.

With `NC(=O)C(=O)C(Cc1ccccc1)NC(=O)c1cccnc1-n1ccc(CNc2ccccc2)n1` (stereo not shown) [Example 28, N-(4-Amino-3,4-dioxo-1-phenylbutan-2-yl)-2-(3-((phenylamino)methyl)-1H-pyrazol-1-yl)nicotinamide], the pKi is greater than 6.60.

For `NC(=O)C(=O)C(Cc1ccccc1)NC(=O)c1cccnc1-n1ccc(CN2CCc3ccccc3C2)n1` (stereo not shown) [Example 22, N-(4-Amino-3,4-dioxo-1-phenylbutan-2-yl)-2-(3-((3,4-dihydroisoquinolin-2(1H)-yl)methyl)-1H-pyrazol-1-yl)nicotinamide], the pKi was greater than 6.60.

For `NC(=O)C(=O)C(Cc1ccccc1)NC(=O)c1cccnc1-n1ccc(CN2CCc3ccccc32)n1` (stereo not shown) [Example 15, N-(4-Amino-3,4-dioxo-1-phenylbutan-2-yl)-2-(3-(indolin-1-ylmethyl)-1H-pyrazol-1-yl)nicotinamide], the pKi is greater than 6.60.

Turning to `NC(=O)C(=O)C(Cc1ccccc1)NC(=O)c1cccnc1-n1cc2c(n1)CCN(CC1CC1)C2` (stereo not shown) [Example 41, N-(4-Amino-3,4-dioxo-1-phenylbutan-2-yl)-2-(5-(cyclopropylmethyl)-4,5,6,7-tetrahydro-2H-pyrazolo[4,3-c]pyridin-2-yl)nicotinamide], the pKi was greater than 6.60.

`NC(=O)C(=O)C(Cc1ccccc1)NC(=O)c1cccnc1-n1ccc(CN2CCOC3CCCCC32)n1` (single isomer, unassigned) [Example 8a, 2-(3-((2H-Benzo[b][1,4]oxazin-4(3H,4aH,5H,6H,7H,8H,8aH)-yl)methyl)-1H-pyrazol-1-yl)-N-(4-amino-3,4-dioxo-1-phenylbutan-2-yl)nicotinamide trifluoroacetate]: the pKi is greater than 6.60.

For `NC(=O)C(=O)C(Cc1ccccc1)NC(=O)c1cccnc1-n1ccc(CN2Cc3ccc(F)cc3C2)n1` (stereo not shown) [Example 31, N-(4-Amino-3,4-dioxo-1-phenylbutan-2-yl)-2-(3-((5-fluoroisoindolin-2-yl)methyl)-1H-pyrazol-1-yl)nicotinamide trifluoroacetate], the negative logarithm of the Ki (pKi) was greater than 6.60.

`NC(=O)C(=O)C(Cc1ccccc1)NC(=O)c1cccnc1-n1ccc(CN2CCC3(CC2)COC3)n1` (stereo not shown) [Example 17, 2-(3-(2-Oxa-7-azaspiro[3.5]nonan-7-ylmethyl)-1H-pyrazol-1-yl)-N-(4-amino-3,4-dioxo-1-phenylbutan-2-yl)nicotinamide trifluoroacetate]: the pKi is greater than 6.60.

Take `O=C(NC1CC1)C(=O)C(Cc1ccccc1)NC(=O)c1cccnc1-n1ccc(CN2Cc3ccccc3C2)n1` (stereo not shown) [Example C2, reference compound]: the negative logarithm of the Ki (pKi) is 6.00 to 6.10.

As for `NC(=O)C(=O)C(Cc1ccccc1)NC(=O)c1cccnc1-n1ccc(CN2CCC(c3ccccc3)C2)n1` (stereo not shown) [Example 29, N-(4-Amino-3,4-dioxo-1-phenylbutan-2-yl)-2-(3-((3-phenylpyrrolidin-1-yl)methyl)-1H-pyrazol-1-yl)nicotinamide], the pKi was greater than 6.60.

Turning to `NC(=O)C(=O)C(Cc1ccccc1)NC(=O)c1cccnc1-n1ccc(CN2CCC(F)(F)CC2)n1` (stereo not shown) [Example 3, N-(4-Amino-3,4-dioxo-1-phenylbutan-2-yl)-2-(3-((4,4-difluoropiperidin-1-yl)methyl)-1H-pyrazol-1-yl)nicotinamide trifluoroacetate], the pKi is greater than 6.60.

Regarding `CC(C)(C)OC(=O)N1CCc2cn(-c3ncccc3C(=O)NC(Cc3ccccc3)C(=O)C(N)=O)nc2C1` (stereo not shown) [Example 45, tert-Butyl 2-(3-(4-amino-3,4-dioxo-1-phenylbutan-2-ylcarbamoyl)pyridin-2-yl)-2,4,5,7-tetrahydro-6H-pyrazolo[3,4-c]pyridine-6-carboxylate], the pKi is greater than 6.60.

In the case of `NC(=O)C(=O)C(Cc1ccccc1)NC(=O)c1cccnc1-n1ccc(CN2Cc3ccc(C(F)(F)F)cc3C2)n1` (stereo not shown) [Example 30, N-(4-Amino-3,4-dioxo-1-phenylbutan-2-yl)-2-(3-((5-(trifluoromethyl)isoindolin-2-yl)methyl)-1H-pyrazol-1-yl)nicotinamide trifluoroacetate], the pKi is greater than 6.60.

Take `NC(=O)C(=O)C(Cc1ccccc1)NC(=O)c1cccnc1-n1cc2c(n1)CCNC2` (stereo not shown) [Example 42, N-(4-Amino-3,4-dioxo-1-phenylbutan-2-yl)-2-(4,5,6,7-tetrahydro-2H-pyrazolo[4,3-c]pyridin-2-yl)nicotinamide hydrochloride]: the pKi is greater than 6.60.

Turning to `CCCCC(NC(=O)c1cccnc1-n1ccc(CN2Cc3ccccc3C2)n1)C(=O)C(N)=O` (stereo not shown) [Example 39, N-(1-Amino-1,2-dioxoheptan-3-yl)-2-(3-(isoindolin-2-ylmethyl)-1H-pyrazol-1-yl)nicotinamide], the pKi is greater than 6.60.

Take `NC(=O)C(=O)C(Cc1ccccc1)NC(=O)c1cccnc1-n1ccc(CN2CC3C[C@@H](c4ccc(F)cc4)C3C2)n1` (stereo partly drawn) [Example 27, N-(4-Amino-3,4-dioxo-1-phenylbutan-2-yl)-2-(3-(((6R)-6-(4-fluorophenyl)-3-azabicyclo[3.2.0]heptan-3-yl)methyl)-1H-pyrazol-1-yl)nicotinamide trifluoroacetate]: the pKi is greater than 6.60.

For `NC(=O)C(=O)C(Cc1ccccc1)NC(=O)c1cccnc1-n1ccc(CN2CCC(C(F)(F)F)CC2)n1` (stereo not shown) [Example 12, N-(4-Amino-3,4-dioxo-1-phenylbutan-2-yl)-2-(3-((4-(trifluoromethyl)piperidin-1-yl)methyl)-1H-pyrazol-1-yl)nicotinamide trifluoroacetate], the pKi was greater than 6.60.

As for `NC(=O)C(=O)C(Cc1ccccc1)NC(=O)c1cccnc1-n1cc2c(n1)CCN(Cc1ccccc1)C2` (stereo not shown) [Example 40, N-(4-Amino-3,4-dioxo-1-phenylbutan-2-yl)-2-(5-benzyl-4,5,6,7-tetrahydro-2H-pyrazolo[4,3-c]pyridin-2-yl)nicotinamide], the pKi is greater than 6.60.

With `CN(Cc1ccn(-c2ncccc2C(=O)NC(Cc2ccccc2)C(=O)C(N)=O)n1)c1ccccc1` (stereo not shown) [Example 16, N-(4-Amino-3,4-dioxo-1-phenylbutan-2-yl)-2-(3-((methyl(phenyl)amino)methyl)-1H-pyrazol-1-yl)nicotinamide], the pKi was greater than 6.60.

`CCN(CC)Cc1ccn(-c2ncccc2C(=O)NC(Cc2ccccc2)C(=O)C(N)=O)n1` (stereo not shown) [Example 18, N-(4-Amino-3,4-dioxo-1-phenylbutan-2-yl)-2-(3-((diethylamino)methyl)-1H-pyrazol-1-yl)nicotinamide trifluoroacetate]: the pKi was 6.40 to 6.60.

Turning to `NC(=O)C(=O)C(Cc1ccccc1)NC(=O)c1cccnc1-n1ccc(CN2CCOCC2)n1` (stereo not shown) [Example 1, N-(4-Amino-3,4-dioxo-1-phenylbutan-2-yl)-2-(3-(morpholinomethyl)-1H-pyrazol-1-yl)nicotinamide], the pKi is greater than 6.60.

For `NC(=O)C(=O)C(Cc1ccccc1)NC(=O)c1cccnc1-n1cc2c(n1)CNC2` (stereo not shown) [Example 44, N-(4-Amino-3,4-dioxo-1-phenyl-2-butanyl)-2-(5,6-dihydropyrrolo[3,4-c]pyrazol-2(4H)-yl)nicotinamide hydrochloride], the pKi is greater than 6.60.

For `NC(=O)C(=O)C(Cc1ccccc1)NC(=O)c1cccnc1-n1ccc(CN2Cc3cccc(F)c3C2)n1` (stereo not shown) [Example 33, N-(4-Amino-3,4-dioxo-1-phenylbutan-2-yl)-2-(3-((4-fluoroisoindolin-2-yl)methyl)-1H-pyrazol-1-yl)nicotinamide trifluoroacetate], the pKi is greater than 6.60.

Turning to `NC(=O)C(=O)C(Cc1ccccc1)NC(=O)c1cccnc1-n1ccc(CN2CCN(c3ccccc3)CC2)n1` (stereo not shown) [Example 32, N-(4-Amino-3,4-dioxo-1-phenylbutan-2-yl)-2-(3-((4-phenylpiperazin-1-yl)methyl)-1H-pyrazol-1-yl)nicotinamide trifluoroacetate], the pKi was greater than 6.60.
